Laboratory results reported in patent US7282342B2, “Methods for detecting weakly immunogenic analytes” (Neuren Pharmaceuticals Ltd., priority 2001, dated 2007).
Residues, ends and D or L forms follow the SMILES beside them.

Tests used:
[1] = tested on: CK5 antibody; test: modified double antibody radioimmunoassay, displacement of I125-labeled Bolton and Hunter derivatized GPE; assay type: binding, rabbit; conditions: test substances Bolton and Hunter derivatized; CK5 at 1:18,000
[2] = tested on: CK5 antibody; test: standard double antibody radioimmunoassay, displacement of I125-labeled YGPE; assay type: binding, rabbit; conditions: CK5 diluted 1:600; I125-labeled YGPE tracer
Description: The CK5 antibody was characterized using a standard double antibody radioimmunoassay technique. Tubes containing either 100 μL 0.02 M phosphate buffered saline assay buffer or peptide (GPE, YGPE (SEQ ID NO:4), KYFGGPE (SEQ ID NO:5), or IGF-1) dissolved in assay buffer at various concentrations were preincubated with CK5 antibody (diluted at 1:600) for 24 h at 4° C. I^125-labeled YGPE (10,000 cpm) was then added to the tubes. After a further 48 h incubation at 4° C., the bound and free GPE were separated by adding donkey anti-rabbit serum (1:100). The tubes were incubated with this second antibody overnight at 4° C. before centrifugation (3,200 rpm for 30 min), after which the supernatant was aspirated, and the precipitate counted in a gamma counter. One antibody, CK5, was identified. […] Unlabeled GPE was able to displace I^125-labeled YGPE with an ED50 of approximately 200 ng/tube.

Compound | cross-reactivity with CK5 antibody [1] | cross-reactivity with CK5 antibody [2]
NCC(=O)N1CCC[C@H]1C(=O)O [GP, glycyl-L-proline] (H-Gly-Pro-OH) | does not cross-react significantly | –
O=C(O)CC[C@H](NC(=O)[C@@H]1CCCN1)C(=O)O [PE, L-prolyl-L-glutamic acid] (H-Pro-Glu-OH) | does not cross-react significantly | –
N[C@@H](CCC(=O)O)C(=O)O [glutamic acid] | does not cross-react significantly | –
NCC(=O)O [glycine] | does not cross-react significantly | –
O=C(O)[C@@H]1CCCN1 [proline] | does not cross-react significantly | –
NC(N)=O [urea] | does not cross-react significantly | –
IGF-1: insulin-like growth factor-1, the GPE parent molecule | does not cross-react significantly | does not cross-react significantly
